In the oligonucleotide strings, read from the 5' end, every base follows the letter of its sugar. An asterisk marks phosphorothioate; unmarked linkages are phosphodiester. Other units and linkages are bracketed, terminal groups are in braces. A string of capitals states the bases alone. d = 2'-deoxy (DNA); m = 2'-O-methyl
Biological target: T1, TLR8 (Homo sapiens, UniProt Q9NR97)
T1 sequence (Q9NR97 27-1041): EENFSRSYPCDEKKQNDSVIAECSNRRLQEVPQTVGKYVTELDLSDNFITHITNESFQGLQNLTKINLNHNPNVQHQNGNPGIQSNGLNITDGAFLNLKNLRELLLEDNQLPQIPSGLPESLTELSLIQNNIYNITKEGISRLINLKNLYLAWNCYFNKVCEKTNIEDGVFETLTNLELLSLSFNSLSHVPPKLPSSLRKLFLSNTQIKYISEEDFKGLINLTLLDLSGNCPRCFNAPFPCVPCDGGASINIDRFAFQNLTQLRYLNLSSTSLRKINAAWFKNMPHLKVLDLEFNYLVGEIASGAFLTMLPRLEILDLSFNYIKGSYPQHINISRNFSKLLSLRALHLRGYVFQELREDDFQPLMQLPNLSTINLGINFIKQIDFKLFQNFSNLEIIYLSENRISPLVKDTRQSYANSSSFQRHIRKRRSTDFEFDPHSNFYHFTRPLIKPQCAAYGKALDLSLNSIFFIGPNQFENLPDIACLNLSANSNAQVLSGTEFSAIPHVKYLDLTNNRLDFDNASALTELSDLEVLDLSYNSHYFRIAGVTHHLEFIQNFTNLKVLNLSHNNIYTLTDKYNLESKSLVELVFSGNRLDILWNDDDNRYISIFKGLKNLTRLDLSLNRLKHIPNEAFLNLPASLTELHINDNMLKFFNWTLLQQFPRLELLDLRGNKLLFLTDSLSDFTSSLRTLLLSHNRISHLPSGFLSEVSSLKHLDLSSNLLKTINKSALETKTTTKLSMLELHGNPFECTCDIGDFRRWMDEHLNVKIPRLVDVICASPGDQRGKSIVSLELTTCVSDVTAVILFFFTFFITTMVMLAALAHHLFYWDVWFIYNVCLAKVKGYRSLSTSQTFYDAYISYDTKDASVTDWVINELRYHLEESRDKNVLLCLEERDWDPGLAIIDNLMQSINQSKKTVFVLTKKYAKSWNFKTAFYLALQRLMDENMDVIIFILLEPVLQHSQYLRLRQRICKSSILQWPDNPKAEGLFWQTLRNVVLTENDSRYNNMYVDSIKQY
Experiment: HEK-TLR8 NF-κB-luciferase reporter, R848 or Motolimod stimulation (potentiation or inhibition)
Assay type: cell-based
Set-up: expressed in transfected cells; host or cells: 293XLhTLR8 (HEK293)
Settings: for TLR8 100 nM: MOE-modified ASO at 100 nM; for TLR8 100 nM / TLR8 500 nM: averaged NF-κB-Luciferase relative to R848 condition (fold increase); for TLR8 500 nM: MOE-modified ASO at 500 nM; for TLR8-500 nM: averaged NF-κB-Luciferase relative to R848: HEK-TLR8, 500 nM ASO, fold increase relative to R848 without ASO (Alharbi et al., 2020)

Substance | TLR8 100 nM | TLR8 500 nM | TLR8-500 nM: averaged NF-κB-Luciferase relative to R848 [fold]
AGTCGTAGTTGCTTCCTAAC (antisense; 2'-MOE modified, pattern not given here) [MB21D1-1181 MOE] | 3.091 | 5.889 | –
ATGCCATCCACTTGATAGGC (antisense; 2'-MOE modified, pattern not given here) [EGFR-2874 MOE] | 2.028 | 2.025 | –
CGGAGGTCTTGGCTTCGTGG (antisense; 2'-MOE modified, pattern not given here) [MB21D1-525 MOE] | 2.197 | 3.257 | –
CGGCATCCACCACGTCGTCC (antisense; 2'-MOE modified, pattern not given here) [EGFR-3267 MOE] | 1.249 | 0.903 | –
GCCCATCCATGAGGTCCTGG (antisense; 2'-MOE modified, pattern not given here) [CTNN2B-2545 MOE] | 0.899 | 0.541 | –
GCTGACAAAGATTCACTGGT (antisense; 2'-MOE modified, pattern not given here) [HPRT-1353 MOE] | 1.475 | 3.067 | –
GGGTATCGAAAGAGTCTGGA (antisense; 2'-MOE modified, pattern not given here) [EGFR-3908 MOE] | 3.138 | 4.073 | –
GGTTTTGGCTGGGATCAAGT (antisense; 2'-MOE modified, pattern not given here) [CAMSAP1-4697 MOE] | 5.496 | 6.332 | –
GTCCAAGATCAGCAGTCTCA (antisense; 2'-MOE modified, pattern not given here) [CTNN2B-2341 MOE] | 3.021 | 3.364 | –
TCCGGCCTCGGAAGCTCTCT (antisense; 2'-MOE modified, pattern not given here) [MB21D1-168 MOE] | 0.816 | 0.781 | –
TGGCAGGCTCAGTGATGTCT (antisense; 2'-MOE modified, pattern not given here) [CTNN2B-1642 MOE] | 1.074 | 0.973 | –
TGGGCTGGAATCCGAGTTAT (antisense; 2'-MOE modified, pattern not given here) [EGFR-4705 MOE] | 1.452 | 2.058 | –
TGGGTTACGGCTCAGTATGG (antisense; 2'-MOE modified, pattern not given here) [CAMSAP1-4295 MOE] | 1.610 | 1.538 | –
TTTGCACACTTCGTACCCAA (antisense; 2'-MOE modified, pattern not given here) [CAMSAP1-4916 MOE] | 1.877 | 2.199 | –
mA*mA*mA*mA*mG*A*T*T*A*T*C*T*T*C*T*mU*mU*mU*mA*mA (AAAAGATTATCTTCTUUUAA; sugars from the 5' end m5 d10 m5, all phosphorothioate, methylation of C not given here) [[CDKN2B-AS1]2133] | – | – | 4.68
mA*mA*mA*mA*mU*A*A*G*G*G*G*A*A*T*A*mG*mG*mG*mG*mA (mA*mA*mA*mA*mU*dA*dA*dG*dG*dG*dG*dA*dA*dT*dA*mG*mG*mG*mG*mA; antisense) [[CDKN2B-AS1]79] | – | – | 0.71
mA*mA*mA*mG*mA*T*T*A*T*C*T*T*C*T*T*mU*mU*mA*mA*mU (mA*mA*mA*mG*mA*dT*dT*dA*dT*dC*dT*dT*dC*dT*dT*mU*mU*mA*mA*mU) [[CDKN2B-AS1]2132] | – | – | 5.04

Substance | TLR8 100 nM | TLR8 500 nM | TLR8-500 nM: averaged NF-κB-Luciferase relative to R848 [fold]
mA*mA*mA*mU*mG*T*C*C*T*G*G*C*C*C*T*mC*mA*mC*mU*mG (mA*mA*mA*mU*mG*dT*dC*dC*dT*dG*dG*dC*dC*dC*dT*mC*mA*mC*mU*mG) [[LINC-PINT]148.1] | – | – | 1.56
mA*mA*mG*mA*mU*T*A*T*C*T*T*C*T*T*T*mU*mA*mA*mU*mU (mA*mA*mG*mA*mU*dT*dA*dT*dC*dT*dT*dC*dT*dT*dT*mU*mA*mA*mU*mU) [[CDKN2B-AS1]2131] | – | – | 5.62
mA*mA*mG*mG*mU*G*G*C*C*A*C*A*G*G*C*mA*mA*mC*mG*mU (mA*mA*mG*mG*mU*dG*dG*dC*dC*dA*dC*dA*dG*dG*dC*mA*mA*mC*mG*mU; antisense) [[CDKN2B-AS1]2198] | – | – | 0.78
mA*mA*mU*mA*mU*C*T*G*C*T*G*C*C*C*A*mC*mC*mU*mU*mC (mA*mA*mU*mA*mU*dC*dT*dG*dC*dT*dG*dC*dC*dC*dA*mC*mC*mU*mU*mC; antisense) [[CDKN2B-AS1]832] | – | – | 4.45
mA*mA*mU*mU*mU*A*A*A*G*C*A*T*G*A*A*mU*mA*mU*mU*mA (mA*mA*mU*mU*mU*dA*dA*dA*dG*dC*dA*dT*dG*dA*dA*mU*mA*mU*mU*mA) [[CDKN2B-AS1]645] | – | – | 5.02
mA*mC*mC*mC*mU*T*C*T*C*T*C*T*G*G*T*mC*mC*mC*mA*mU (mA*mC*mC*mC*mU*dT*dC*dT*dC*dT*dC*dT*dG*dG*dT*mC*mC*mC*mA*mU; antisense) [[LINC-PINT]115] | – | – | 7.57
mA*mG*mA*mA*mA*G*A*A*G*C*A*A*A*G*A*mU*mU*mC*mA*mA (AGAAAGAAGCAAAGAUUCAA; sugars from the 5' end m5 d10 m5, all phosphorothioate, methylation of C not given here) [[CDKN2B-AS1]1519] | – | – | 2.78
mA*mG*mA*mU*mU*A*T*C*T*T*C*T*T*T*T*mA*mA*mU*mU*mU (AGAUUATCTTCTTTTAAUUU; sugars from the 5' end m5 d10 m5, all phosphorothioate, methylation of C not given here) [[CDKN2B-AS1]2130] | – | – | 6.26
mA*mG*mC*mC*mG*A*A*C*A*G*A*A*G*G*A*mG*mC*mG*mU*mC (AGCCGAACAGAAGGAGCGUC; sugars from the 5' end m5 d10 m5, all phosphorothioate, methylation of C not given here) [[LINC-PINT]587 KL] | – | – | 3.73
mA*mG*mG*mA*mU*T*A*A*A*A*C*A*G*A*T*mU*mA*mA*mU*mA (mA*mG*mG*mA*mU*dT*dA*dA*dA*dA*dC*dA*dG*dA*dT*mU*mA*mA*mU*mA) [[CDKN2B-AS1] 1775] | – | – | 2.63
mA*mG*mG*mC*mC*T*C*C*A*G*T*G*T*C*T*mU*mC*mU*mC*mC (mA*mG*mG*mC*mC*dT*dC*dC*dA*dG*dT*dG*dT*dC*dT*mU*mC*mU*mC*mC; antisense) [[CDKN2B-AS1]2218] | – | – | 4.66
mA*mU*mA*mU*mC*T*G*C*T*G*C*C*C*A*C*mC*mU*mU*mC*mU (AUAUCTGCTGCCCACCUUCU; antisense; sugars from the 5' end m5 d10 m5, all phosphorothioate, methylation of C not given here) [[CDKN2B-AS1]831] | – | – | 5.89
mA*mU*mG*mA*mC*A*T*T*T*C*G*T*G*G*C*mU*mC*mC*mU*mA (mA*mU*mG*mA*mC*dA*dT*dT*dT*dC*dG*dT*dG*dG*dC*mU*mC*mC*mU*mA) [[LINC-PINT]524.1] | – | – | 1.20
mC*mA*mA*mG*mC*C*C*C*A*G*C*G*T*T*C*mC*mU*mC*mC*mG (mC*mA*mA*mG*mC*dC*dC*dC*dA*dG*dC*dG*dT*dT*dC*mC*mU*mC*mC*mG; antisense) [[LINC-PINT]83.1] | – | – | 4.44
mC*mA*mC*mC*mC*T*T*C*T*C*T*C*T*G*G*mU*mC*mC*mC*mA (CACCCTTCTCTCTGGUCCCA; antisense; sugars from the 5' end m5 d10 m5, all phosphorothioate, methylation of C not given here) [[LINC-PINT]116] | – | – | 5.97
mC*mA*mC*mU*mG*T*A*T*T*T*T*A*T*T*A*mC*mA*mG*mA*mA (mC*mA*mC*mU*mG*dT*dA*dT*dT*dT*dT*dA*dT*dT*dA*mC*mA*mG*mA*mA; antisense) [[LINC-PINT]2990] | – | – | 4.86
mC*mA*mG*mG*mC*C*T*C*C*A*G*T*G*T*C*mU*mU*mC*mU*mC (mC*mA*mG*mG*mC*dC*dT*dC*dC*dA*dG*dT*dG*dT*dC*mU*mU*mC*mU*mC; antisense) [[CDKN2B-AS1]2219] | – | – | 3.89

— patent US20240384268A1, “Oligonucleotides” (Hudson Institute of Medical Research, priority 2021, published 2024)
